{"source": "patent US6689764B1", "about": "“Treatment of angiogenesis dependent conditions with dextrin sulphate” (priority 1999, dated 2004)", "key": {"[1]": {"tested_on": "human placental blood vessels", "assay": "Placental blood vessel in fibrin clot in vitro angiogenesis assay", "type": "cell-based", "conditions": "100 μg/ml, up to day 22", "protocol": "Compounds were tested at a final concentration of 100 μg/ml. The degree of new vessel formation was quantified blind twice a week using a visual analog scale in which 0=no growth, 1=minimal new vessel formation, 2=significant new vessel formation, and 3=dense new vessel formation. An angiogenesis score was derived from each count by dividing the total score (i.e. the sum of all the wells) by the maximum possible score and then expressing the result as a percentage. This graph is representative of 3 experiments with a total of 20 wells/plate/experiment for each compound tested.\nBlood vessels (approximately 1-2 mm diameter) were excised from the apical surface of human placentas within 6 h of an elective Caesarean birth. Use of the placentas for these studies were approved by the Ethics Committee of Hammersmith Hospitals Trust, London. The blood vessels were placed in Hank's balanced salt solution and cut into 1-2 mm fragments using fine dissecting forceps and iridectomy scissors. Residual clots were removed and the blood vessels then soaked in Hank's balanced salt solution.\nThe effect of each compound on new blood vessel formulation was determined by culturing the blood vessels within a fibrin clot in 24-well tissue culture plates. Thirty μl of bovine thrombin (50 NIH U/ml in 0.15 M sodium chloride) was added to each well followed by 1 ml/well of 3 mg/ml bovine fibrinogen in Medium 199. The thrombin and fibrinogen were rapidly mixed and a blood vessel fragment placed in the centre of the well. Fibrin gel formation occurred rapidly and left the vessel suspended within the gel. One ml/well of Medium 199 supplemented with 20% foetal calf serum, 250 IU/ml penicillin and 250 U/ml streptomycin was then added to each well. ε-arnino-n-caproic acid was also added (300 μg/ml) for the first 4 days and twice weekly thereafter (50 μg/ml) in order to prevent dissolution of the fibrin clot. The vessels were cultured at 37° C. in a humidified incubator for 25 days with the media being changed twice weekly.\nThe degree of new vessel formation was quantified blind twice a week by three different observers using a visual analogue scale in which 0=no growth, 1=very little new vessel formation, 2=significant new vessel formation and 3=dense new vessel formation. An angiogenesis score was derived from the counts undertaken for each well by dividing the total score by the maximum score possible and then expressing the result as a percentage. On each of 3 separate occasions, each compound was tested in 20 replicate wells. […] Some of the fibrin clots were fixed overnight in 10% formalin, paraffin embedded, sectioned for histology and then stained for the endothelial cell markers Factor VIII and CD31. Results are expressed as the mean±sem. A students t-test was used to determine the level of significance."}, "ECV304 cells": {"tested_on": "ECV304 cells", "assay": "In vitro proliferation, MTT uptake", "type": "cell-based, human", "protocol": "(§1) SK-HEP-1 is a human liver adenocarcinoma with endothelial morphology and ECV304 is a human urinary bladder carcinoma with endothelial-like characteristics. Both cell lines were obtained from the ECACC. HUVEC was provided as a growing culture by TCS Biologicals.\n(§2) Cells were grown and prepared in RPMI medium containing 10% FCS and 2mM glutamine. For the in vitro assays, cells were harvested with 0.025% EDTA, washed in the culture medium and plated into 96-well plates at 5×10^3 and 1×10^4 cells/well in a volume of 100 μl. After 24 hours, to allow for cell adherence, the medium was replaced with fresh medium containing dextrin sulphate at concentrations of 0, 1, 5, 10, 50, 100, 500, 1000 μg/ml. After 48 hours, proliferation was assessed by methyl thiazol tetrazolium (MTT) uptake as follows:\n(§3) MTT (Sigma) was added to the wells in a 50 μl volume at a concentration of 1mg/ml. After 4 hours incubation the insoluble formazan crystals were solubilised by the addition of 75 μl DMSO/well and the absorbance measured at 550 nm.\n(§4) Dextrin sulphate was assessed in two separate experiments. All experiments were performed with two different cell-seeding concentrations. […] To compare between cell lines and experiments, the level of inhibition achieved at the highest concentration evaluated (1000 μg/ml) was calculated as was the significance from the untreated control. (See FIG. 11)."}, "SK-HEP-1 cells": {"tested_on": "SK-HEP-1 cells", "assay": "In vitro proliferation, MTT uptake", "type": "cell-based, human", "protocol": "as §1, §2, §3, §4"}, "HUVEC cell line": {"tested_on": "HUVEC cell line", "assay": "TCS Biologicals Human Angiogenesis Model (tubule formation)", "type": "cell-based", "protocol": "The effect of sulphated dextrin on vessel formation of the HUVEC cell line was performed by the use of the TCS Biologicals Human Angiogenesis Model. The assay is supplied as a growing culture of the HUVEC cell line together with culture matrix and additional human cells present (the exact nature of the cells is not known) at the earliest stages of tubule formation in a 24-well format. The positive control reagent was a standard stock solution of VEGF and the negative control was Suramin. After removing the well seals, the cultures were examined for cell morphology to confirm their viability.\nGrowth medium was provided with the kit and was used to make up the sulphated dextrin at concentrations ranging from 0-1000 μg/ml. The existing medium was aspirated from the wells and replaced with medium containing the dextrin sulphate concentrations in a 0.5ml volume. This was placed at 37° C., in a 5% CO2 containing atmosphere. This was repeated on days 4, 7 and 9.\nBetween days 7-11 cultures were fixed by the enclosed fixative and stained with the mouse monoclonal anti-PECAM-1 antibody at a 1:4000 dilution (present in blocking buffer). 0.5ml of diluted antibody was added per well and incubated for 60 minutes at 37° C. The secondary antibody (goat anti-mouse lgG alkaline phosphatase conjugate) was diluted 1:500 in blocking buffer and added to the wells after washing for 60 minutes at 37° C. After washing the plate the substrate was prepared; BCIP/NBT tablets were dissolved in distilled water and added to the wells. Following incubation for 5-10 minutes the wells were washed and were imaged using the Leica Qwin image analysis software package."}, "[2]": {"tested_on": "AP5LV human colorectal xenograft", "assay": "AP5LV human colorectal xenograft in SCID mice", "type": "in vivo", "protocol": "Dextrin sulphate, 10 mg/kg in 1ml icodextrin was administered every second day to two male SCID micc. Dosing continued for 14 days.\nThe cell line evaluated, AP5LV, is a variant of an established human colorectal cell line, derived originally from a patient's primary tumour. AP5LV cells have been selected for their ability to both colonise the lungs following intravenous injection and to spontaneously metastasise to the lungs following injection of the cells into the peritoneal muscle wall. AP5LV cells were maintained in vitro in RPMI 1640 culture medium (Gibco, Paisley, UK) containing 10% (v/v) heat inactivated foetal bovine serum (Sigma, Poole, UK) at 37° C. in 5% CO2 and humidified conditions. Cells from semi-confluent monolayers were harvested with 0.025% EDTA, washed twice in the culture medium described above, and re-suspended at 5×10^6/50 μl in sterile phosphate buffered saline, pH 7.4(PBS).\nThe mice were anaesthetised using Hypnorm(Roche)/Hyponovel(Janssen) and the cell suspension injected into the peritoneal muscle wall of 20 male SCD mice. Mice were electronically tagged for identification purposes (RS Biotech, Tracker), and randomly allocated to two experimental groups (see below). The treatment regime was initiated on day 1 and continued every other day until termination on day 38. […]"}, "HUVEC cells": {"tested_on": "HUVEC cells", "conditions": "in vitro, Thornton et al 1999; cited from earlier work"}}, "data": [{"substance": "dextrin sulphate", "values": [{"measurement": "new vessel formation compared to media alone", "setting": "[1]", "value": "inhibits new vessel formation"}, {"measurement": "inhibition of in vitro growth", "setting": "ECV304 cells; ECV304, 0-1000 μg/ml, 48 hours", "value": "moderate levels of inhibition"}, {"measurement": "level of inhibition of growth", "setting": "ECV304 cells; ECV304, 1000 μg/ml, both cell concentrations, two experiments", "value": "11-33%"}, {"measurement": "concentrations at which inhibitory effects were seen", "setting": "ECV304 cells; ECV304, MTT assay", "value": "> 100", "unit": "µg/mL"}, {"measurement": "inhibition of in vitro growth", "setting": "SK-HEP-1 cells; SK-HEP-1, 0-1000 μg/ml, 48 hours", "value": "moderate levels of inhibition"}, {"measurement": "level of inhibition of growth", "setting": "SK-HEP-1 cells; SK-HEP-1, 1000 μg/ml, lower cell concentration", "value": "~65", "unit": "%"}, {"measurement": "concentrations at which inhibitory effects were seen", "setting": "SK-HEP-1 cells; SK-HEP-1, MTT assay", "value": "> 100", "unit": "µg/mL"}, {"measurement": "level of inhibition of growth", "setting": "SK-HEP-1 cells; SK-HEP-1, higher cell concentration", "value": "not as great"}, {"measurement": "branch point number, % of control", "setting": "HUVEC cell line; 1 μg/ml", "value": 120, "unit": "%"}, {"measurement": "tubule branch points, reduction", "setting": "HUVEC cell line; 1 μg/ml", "value": 31, "unit": "%"}, {"measurement": "branch point number, % of control", "setting": "HUVEC cell line; 5 μg/ml", "value": 115, "unit": "%"}, {"measurement": "branch point number, inhibition", "setting": "HUVEC cell line; 50 μg/ml", "value": 26, "unit": "%"}, {"measurement": "branch point number, inhibition", "setting": "HUVEC cell line; 100 μg/ml", "value": 48, "unit": "%"}, {"measurement": "tubule number, inhibition", "setting": "HUVEC cell line; 100 μg/ml", "value": 48, "unit": "%"}, {"measurement": "branch point number, inhibition", "setting": "HUVEC cell line; 500 μg/ml", "value": 53, "unit": "%"}, {"measurement": "branch point number, inhibition", "setting": "HUVEC cell line; 1000 μg/ml", "value": 68, "unit": "%"}, {"measurement": "tubule branch points, reduction", "setting": "HUVEC cell line; 1000 μg/ml", "value": 93, "unit": "%"}, {"measurement": "tubule number, inhibition", "setting": "HUVEC cell line; 1000 μg/ml", "value": 68, "unit": "%"}, {"measurement": "branch point number", "setting": "HUVEC cell line; all concentrations evaluated (1-1000 μg/ml)", "value": "inhibitory effect"}, {"measurement": "tubule number", "setting": "HUVEC cell line; lower concentrations", "value": "low but significant stimulation"}, {"measurement": "toxicity", "setting": "[2]; 10 mg/kg i.p. every second day, SCID mice", "value": "no toxicity"}, {"measurement": "reduction in final tumour weight", "setting": "[2]; 10 mg/kg in 4% Icodextrin i.p. every second day, termination day 38, SCID mice", "value": 28, "unit": "%"}, {"measurement": "proliferation of HUVEC cells", "setting": "HUVEC cells", "value": "not to be directly inhibited"}]}]}
